Experimental data as given in US11716994B2, “Combinations of Yersinia entomophaga and pesticides or other substances” (priority 2017, dated 2023).
“And” between values parts separate entries of the source, which are not always exact repeats. Equal entries are not always repeated. Where two headings read alike, the source gives them in different places.

How the values were obtained:
cabbage looper [1] = system: cabbage looper
fall armyworm [2] = experiment: Leaf disk mortality assay, Y. entomophaga cells with chemical insecticides; settings: for % Mortality (3DAT) / LT50 (95% confidence intervals) in days: 4th instar; for % Mort. Chem.: fall armyworm, Esfenvalerate 56 mg/L
black cutworm [3] = experiment: as above; settings: for % Mort. Chem. / LT50 Chem.: black cutworm
black cutworm [4] = system: black cutworm
Procedure: (§2) To produce cell free filtrates, cultures of Yersinia entomophaga grown in LB medium were centrifuged at 11,448 (g) for 10 minutes. The supernatant was decanted from the centrifuged pellet and filtered through a 0.22 μm filter. Assays were performed to determine concentrations of Yen-TC (toxin complex) using ELISA, and chitinase by measuring chitinase activity on specific substrates. […] This was done to estimate relative potency of the cell free filtrates. Insects were first pre-screened with a range of dilutions of cell free filtrates to select a concentration that provided moderate activity. […] Based on these initial screens, undiluted cell free filtrate was used for cabbage looper, fall armyworm, black cutworm, and Colorado potato beetle. […] In each of the Examples below, this is expressed as 1%.
Cabbage leaf disks were dipped in either acetone (controls and Y. entomophaga alone treatments) or in indoxacarb (Sigma 33969) at 0.53 mg/L in acetone. These were set to dry for 1 hr. […] After the cabbage disks had dried for 1 hr, a single 2nd instar black cutworm was added to each individual cabbage disk. A total of 20 insects were evaluate for each treatment. Insects were observed daily and scored as live or dead.
Cabbage leaf disks were dipped in either acetone (controls and Y. entomophaga alone treatments) or in flubendiamide (Sigma 32801) at 0.59 mg/L in acetone. These were set to dry for 1 hr. […] After the cabbage disks had dried for 1 hr, a single 2nd instar black cutworm was added to each individual cabbage disk. A total of 20 insects were evaluate for each treatment. Insects were observed daily and scored as live or dead.

fall armyworm [5] = system: fall armyworm
Procedure: To produce cell free filtrates, cultures of Yersinia entomophaga grown in LB medium were centrifuged at 11,448 (g) for 10 minutes. The supernatant was decanted from the centrifuged pellet and filtered through a 0.22 μm filter. Assays were performed to determine concentrations of Yen-TC (toxin complex) using ELISA, and chitinase by measuring chitinase activity on specific substrates. […] This was done to estimate relative potency of the cell free filtrates. Insects were first pre-screened with a range of dilutions of cell free filtrates to select a concentration that provided moderate activity. […] Based on these initial screens, undiluted cell free filtrate was used for cabbage looper, fall armyworm, black cutworm, and Colorado potato beetle.
Cabbage leaf disks were dipped in either acetone (controls and Y. entomophaga alone treatments) or fipronil (Sigma 46451) at 12 mg/L in acetone. These were set to dry for 1 hr. […] After the cabbage disks had dried for 1 hr, a single 3rd instar fall armyworm was added to each individual cabbage disk. A total of 20 insects were evaluated for each treatment. Insects were observed daily and scored as live or dead.
Cabbage leaf disks were dipped in either acetone (controls and Y. entomophaga alone treatments) or esfenvalerate (Sigma 46277) at 56 mg/L in acetone. These were set to dry for 1 hr. […] After the cabbage disks had dried for 1 hr, a single 3rd instar fall armyworm was added to each individual cabbage disk. A total of 20 insects were evaluate for each treatment. Insects were observed daily and scored as live or dead.

Yersinia entomophaga = experiment: CFU counts after exposure of Yersinia entomophaga to insecticides; type: cell-based; settings: 1 hour contact
Excerpt: To test combinations of Yersinia entomophaga and pesticides for their ability to produce a pesticidal effect, or an effect on plant growth or yield, we first put various insecticides in contact with Yersinia to identify insecticides that had minimal toxicity to Yersinia entomophaga. The logic was that, if Yersinia entomophaga is to function well in combination with a chemical insecticide, the chemical insecticide would ideally have low or no effect on the ability of Yersinia entomophaga to survive, grow and/or to function.
To perform this study, we selected amounts of various insecticides based on the percent of the specific insecticide in the insecticide composition obtained from a manufacturer. We also considered the application rate of the particular insecticide, as recommended by the manufacturer. […] Generally, the 1× amount was considered possibly the lowest amount of insecticide that may be considered as an effective amount for use in the combinations disclosed herein. For each insecticide, we also used a higher amount of insecticide (generally a 5× or 10× amount).
The 1× and 5×/10× amounts of each insecticide were added to tubes along with 1 ml of ethyl acetate. The tubes were mixed until the insecticides dissolved. The tubes were left open in a fume hood overnight to allow the ethyl acetate to evaporate. The insecticide remained in the tubes, as a solid coat on the interior surface of the tubes.
A growing culture of Yersinia entomophaga, grown in LB medium, was diluted and 1 ml of the diluted culture was added to each tube containing the dried insecticide. The tubes were mixed and then left on the bench top for 1 hour. Then, 100 μl from each tube was plated onto LB plates in triplicate in CFU assays. Plates were incubated at 25° C. for 48 hours and colonies were counted.

cabbage looper [6] = system: cabbage looper; remark: listed apart in the source
diamondback moth = experiment: whole plant or invertebrate; settings: thiacloprid 100 mg/L; for mortality at 100 µg/mL: Plutella xylostella, foliar, Abbott's corrected
Excerpt: (§1) These were set to dry for 1 hr.
as §1
These were set to dry for 1 hr. Cabbage disks were then dipped in either 1% Luria broth (LB) media solution (controls and thiacloprid alone treatments) or in 1% cell free filtrate from a culture Y. entomophaga isolate O24G3R (Y. entomophaga alone or in combination with thiacloprid treatments).

Colorado potato beetle [7] = settings: thiacloprid 1 mg/L
Procedure: as §2
Tomato leaf disks were dipped in either acetone (controls and Y. entomophaga alone treatments) or thiacloprid (Sigma 37905) at 1 mg/L in acetone. These were set to dry for 1 hr. […] After the tomato disks had dried for 1 hr, a single 3rd instar Colorado potato beetle was added to each individual cabbage disk. A total of 20 insects were evaluate for each treatment. Insects were observed daily and scored as live or dead.

Colorado potato beetle [8] = experiment: Tomato leaf disk mortality assay, Y. entomophaga cells with chemical insecticides; settings: for mortality at 1 µg/mL: Leptinotarsa decemlineata, in Solanum lycopersicum, foliar
[9] = 3rd instar, esfenvalerate 5.6 mg/L, isolate O24G3R 1×10^4 cfu/mL
[10] = 3rd instar, esfenvalerate 56 mg/L, isolate O43NEW 1×10^6 cfu/mL
[11] = esfenvalerate 56 mg/L, isolate O23ZMJ 1×10^5 cfu/mL
[12] = esfenvalerate 56 mg/L, isolate O24G3R 1×10^5 cfu/mL
[13] = esfenvalerate 56 mg/L, isolate O348UX 1×10^5 cfu/mL
[14] = 3rd instar, esfenvalerate 5.6 mg/L, isolate O23ZMJ 1×10^5 cfu/mL
[15] = 3rd instar, esfenvalerate 5.6 mg/L, isolate O24G3R 1×10^5 cfu/mL
[16] = 3rd instar, esfenvalerate 5.6 mg/L, isolate O43NEW 1×10^5 cfu/mL
[17] = 3rd instar, esfenvalerate 5.6 mg/L, isolate O348UX 1×10^5 cfu/mL

Question: With `CC(C)[C@H](C(=O)O[C@H](C#N)c1cccc(Oc2ccccc2)c1)c1ccc(Cl)cc1` [Esfenvalerate] as the compound, how does the “% Mort. Chem.” value (cabbage looper [1]; cabbage looper, Esfenvalerate 0.56 mg/L, 7 DAT) read?
Answer: 37%

Question: And the “LT50 Chem.” value (cabbage looper [1]; cabbage looper, Esfenvalerate alone 0.56 mg/L)?
Answer: 5.63 days

Question: And the “% Mortality (2DAT)” value (cabbage looper [1]; in vivo)?
Answer: 5%

Question: What about the “LT50 (95% confidence intervals) in days” value (cabbage looper [1]; in vivo) of the same compound?
Answer: 5.63 (5.19-6.11) days

Question: What about the “% Mortality (6DAT)” value (fall armyworm [2]; [9]) of the same compound?
Answer: 0%

Question: And the “LT50 (95% confidence intervals)” value (fall armyworm [2]; [9])?
Answer: 20.00 days

Question: What about the “% Mortality (5DAT)” value (fall armyworm [2]; [10]) of the same compound?
Answer: 5%

Question: What about the “% Mortality (7DAT)” value (fall armyworm [2]; [10]) of the same compound?
Answer: 5%

Question: What about the “% Mortality (9DAT)” value (fall armyworm [2]; [10]) of the same compound?
Answer: 11%

Question: What about the “% Mortality (11DAT)” value (fall armyworm [2]; [10]) of the same compound?
Answer: 6%

Question: And the “LT50 (95% confidence intervals)” value (fall armyworm [2]; [10])?
Answer: 13.6 days

Question: What about the “% Mortality (3DAT)” value (fall armyworm [2]; [11]) of the same compound?
Answer: 25%

Question: What about the “LT50 (95% confidence intervals) in days” value (fall armyworm [2]; [11]) of the same compound?
Answer: 3.66 (3.28-4.09) days

Question: What about the “% Mortality (3DAT)” value (fall armyworm [2]; [12]) of the same compound?
Answer: 25%

Question: And the “LT50 (95% confidence intervals) in days” value (fall armyworm [2]; [12])?
Answer: 3.66 (3.28-4.09) days

Question: What about the “% Mortality (3DAT)” value (fall armyworm [2]; [13]) of the same compound?
Answer: 25%

Question: What about the “LT50 (95% confidence intervals) in days” value (fall armyworm [2]; [13]) of the same compound?
Answer: 3.66 (3.28-4.09) days

Question: And the “% Mort. Chem.” value (fall armyworm [2]; 3 DAT (row with O23ZMJ))?
Answer: 25%

Question: What about the “% Mort. Chem.” value (fall armyworm [2]; 3 DAT (row with O24G3R 1 × 10^5)) of the same compound?
Answer: 25%

Question: And the “% Mort. Chem.” value (fall armyworm [2]; 3 DAT (row with O348UX))?
Answer: 25%

Question: What about the “% Mort. Chem.” value (fall armyworm [2]; 5 DAT) of the same compound?
Answer: 5%

Question: And the “% Mort. Chem.” value (fall armyworm [2]; 6 DAT)?
Answer: 0%

Question: What about the “% Mortality (3DAT)” value (black cutworm [3]; [14]) of the same compound?
Answer: 42%

Question: What about the “% Mortality (4DAT)” value (black cutworm [3]; [14]) of the same compound?
Answer: 61%

Question: And the “LT50 (95% confidence intervals) in days” value (black cutworm [3]; [14])?
Answer: 3.40 (3.03-3.81) days

Question: And the “% Mortality (5DAT)” value (black cutworm [3]; [15])?
Answer: 50%

Question: And the “% Mortality (6DAT)” value (black cutworm [3]; [15])?
Answer: 56%

Question: And the “% Mortality (7DAT)” value (black cutworm [3]; [15])?
Answer: 69%

Question: What about the “LT50 (95% confidence intervals) in days” value (black cutworm [3]; [15]) of the same compound?
Answer: 5.29 (4.75-5.87) days

Question: What about the “% Mortality (3DAT)” value (black cutworm [3]; [16]) of the same compound?
Answer: 40%

Question: And the “% Mortality (4DAT)” value (black cutworm [3]; [16])?
Answer: 45%

Question: What about the “LT50 (95% confidence intervals) in days” value (black cutworm [3]; [16]) of the same compound?
Answer: 3.97 (3.60-4.38) days

Question: And the “% Mortality (5DAT)” value (black cutworm [3]; [17])?
Answer: 50%

Question: And the “% Mortality (6DAT)” value (black cutworm [3]; [17])?
Answer: 56%

Question: What about the “% Mortality (7DAT)” value (black cutworm [3]; [17]) of the same compound?
Answer: 69%

Question: What about the “LT50 (95% confidence intervals)” value (black cutworm [3]; [17]) of the same compound?
Answer: 5.29 days

Question: And the “% Mort. Chem.” value (black cutworm [3]; Esfenvalerate 1.87 mg/L, 5 DAT (row with O24G3R))?
Answer: 50%

Question: What about the “% Mort. Chem.” value (black cutworm [3]; Esfenvalerate 1.87 mg/L, 5 DAT (row with O348UX)) of the same compound?
Answer: 50%

Question: And the “% Mort. Chem.” value (black cutworm [3]; Esfenvalerate 5.6 mg/L, 4 DAT (row with O23ZMJ))?
Answer: 61%

Question: What about the “% Mort. Chem.” value (black cutworm [3]; Esfenvalerate 5.6 mg/L, 4 DAT (row with O43NEW)) of the same compound?
Answer: 45%

Question: And the “LT50 Chem.” value (black cutworm [3]; Esfenvalerate alone 1.87 mg/L)?
Answer: 5.29 days

Question: What about the “LT50 Chem.” value (black cutworm [3]; Esfenvalerate alone 5.6 mg/L) of the same compound?
Answer: 3.97 days and 3.40 days

Question: And the “LT50 Chem.” value (black cutworm [4]; Black cutworm, esfenvalerate 5.6 mg/L)?
Answer: 3.68 days

Question: What about the “% Mort. Chem.” value (black cutworm [4]; Black cutworm, esfenvalerate 5.6 mg/L, 6 DAT) of the same compound?
Answer: 84%

Question: And the “% Mortality (6DAT)” value (black cutworm [4]; in vivo)?
Answer: 84%

Question: What about the “LT50 (95% confidence intervals)” value (black cutworm [4]; in vivo) of the same compound?
Answer: 3.68 days

Question: And the “LT50 Chem.” value (fall armyworm [5]; Fall armyworm, esfenvalerate 56 mg/L)?
Answer: 9.84 days

Question: And the “% Mort. Chem.” value (fall armyworm [5]; fall armyworm, Esfenvalerate 56 mg/L, 5 DAT)?
Answer: 40%

Question: And the “% Mortality (5DAT)” value (fall armyworm [5]; in vivo)?
Answer: 40%

Question: What about the “% Mortality (7DAT)” value (fall armyworm [5]; in vivo) of the same compound?
Answer: 45%

Question: What about the “LT50 (95% confidence intervals)” value (fall armyworm [5]; in vivo) of the same compound?
Answer: 9.84 days

Question: And the “Average CFU” value (Yersinia entomophaga; 0.8 mg insecticide)?
Answer: 258 CFU

Question: And the “Average CFU” value (Yersinia entomophaga; 5.3 mg insecticide)?
Answer: 0 CFU

Question: And the “LT50 Chem.” value (cabbage looper [6]; Cabbage Looper, esfenvalerate 0.56 mg/L)?
Answer: 5.23 days

Question: What about the “% Mort. Chem.” value (cabbage looper [6]; Cabbage Looper, esfenvalerate 0.56 mg/L, 5 DAT) of the same compound?
Answer: 40%

Question: And the “% Mortality (5DAT)” value (cabbage looper [6]; in vivo)?
Answer: 40%

Question: And the “% Mortality (6DAT)” value (cabbage looper [6]; in vivo)?
Answer: 70%

Question: What about the “% Mortality (8DAT)” value (cabbage looper [6]; in vivo) of the same compound?
Answer: 83%

Question: What about the “LT50 (95% confidence intervals) in days” value (cabbage looper [6]; in vivo) of the same compound?
Answer: 5.23 (4.69-5.79) days

Question: How did the “LT50 (95% confidence intervals)” value (diamondback moth; 2nd instar diamondback moth, O24G3R filtrate 1%, alone or combined) turn out when `N#C/N=C1\SCCN1Cc1ccc(Cl)nc1` [Thiacloprid] was run?
Answer: 12.58 days

Question: What about the “LT50 Chem.” value (diamondback moth; Diamondback moth) of the same compound?
Answer: 12.58 days

Question: What about the “% Mort. Chem.” value (diamondback moth; Diamondback moth, 7 DAT) of the same compound?
Answer: 17%

Question: And the mortality at 100 µg/mL (diamondback moth; 96 h, read-out: % Mortality (4DAT), 2nd instar diamondback moth, O24G3R filtrate 1%, alone or combined, 4 DAT)?
Answer: 5%

Question: What about the mortality at 100 µg/mL (diamondback moth; 120 h, read-out: % Mortality (5DAT), 2nd instar diamondback moth, O24G3R filtrate 1%, alone or combined, 5 DAT) of the same compound?
Answer: 10%

Question: What about the mortality at 100 µg/mL (diamondback moth; 144 h, read-out: % Mortality (6DAT), 2nd instar diamondback moth, O24G3R filtrate 1%, alone or combined, 6 DAT) of the same compound?
Answer: 10%

Question: What about the mortality at 100 µg/mL (diamondback moth; 168 h, read-out: % Mortality (7DAT), 2nd instar diamondback moth, O24G3R filtrate 1%, alone or combined, 7 DAT) of the same compound?
Answer: 17%

Question: And the mortality at 100 µg/mL (diamondback moth; 288 h, read-out: % Mortality (12DAT), 2nd instar diamondback moth, O24G3R filtrate 1%, alone or combined, 12 DAT)?
Answer: 27%

Question: And the mortality at 100 µg/mL (diamondback moth; 312 h, read-out: % Mortality (13DAT), 2nd instar diamondback moth, O24G3R filtrate 1%, alone or combined, 13 DAT)?
Answer: 33%

Question: And the “LT50 (95% confidence intervals)” value (Colorado potato beetle [7]; 3rd instar Colorado potato beetle, O43NEW undiluted filtrate, alone or combined)?
Answer: 12.71 days

Question: What about the “LT50 Chem.” value (Colorado potato beetle [7]; Colorado potato beetle) of the same compound?
Answer: 12.71 days

Question: And the “% Mort. Chem.” value (Colorado potato beetle [7]; Colorado potato beetle, 6 DAT)?
Answer: 13%

Question: And the “LT50 (95% confidence intervals) in days” value (Colorado potato beetle [8]; 2nd instar larva, thiacloprid 1 mg/L, isolate O43NEW 1×10^6 cfu/mL)?
Answer: 6.99 (6.44-7.58) days

Question: And the “% Mort. Chem.” value (Colorado potato beetle [8]; Colorado potato beetle, Thiacloprid 1 mg/L, 5 DAT)?
Answer: 26%

Question: What about the “LT50 Chem.” value (Colorado potato beetle [8]; Colorado potato beetle, Thiacloprid alone 1 mg/L) of the same compound?
Answer: 6.99 days

Question: What about the mortality at 1 µg/mL (Colorado potato beetle [8]; 96 h, read-out: % Mortality (4DAT)) of the same compound?
Answer: 26%

Question: What about the mortality at 1 µg/mL (Colorado potato beetle [8]; 120 h, read-out: % Mortality (5DAT)) of the same compound?
Answer: 26%
